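All cell lines were grown in 96-well plates and treated with compound for 48 hours. GI50 marks 50% less growth. Definition used: TGI = concentration required for complete inhibition of growth.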
Key:
Assay in all cases: NCI anticancer screen, dose series, 48 h
NCI-H226 lung = test system: NCI-H226 lung
DU-145 prostate = test system: DU-145 prostate
MALME-3M melanoma = test system: MALME-3M melanoma
KM12 colon = test system: KM12 colon
CCRF-CEM leukemia = test system: CCRF-CEM leukemia
TK-10 renal = test system: TK-10 renal
K-562 leukemia = test system: K-562 leukemia
LOX IMVI melanoma = test system: LOX IMVI melanoma
HCC-2998 colon = test system: HCC-2998 colon
PC-3 prostate = test system: PC-3 prostate
MOLT-4 leukemia = test system: MOLT-4 leukemia
SR leukemia = test system: SR leukemia
SNB-75 CNS = test system: SNB-75 CNS
IGROV1 ovarian = test system: IGROV1 ovarian
RXF 393 renal = test system: RXF 393 renal
OVCAR-4 ovarian = test system: OVCAR-4 ovarian
ACHN renal = test system: ACHN renal
SK-MEL-28 melanoma = test system: SK-MEL-28 melanoma
786-0 renal = test system: 786-0 renal
U251 CNS = test system: U251 CNS
SF-268 CNS = test system: SF-268 CNS
SK-MEL-5 melanoma = test system: SK-MEL-5 melanoma
T-47D breast = test system: T-47D breast
MDA-MB-231 breast = test system: MDA-MB-231 breast
SK-MEL-2 melanoma = test system: SK-MEL-2 melanoma
HOP-62 NSCLC = test system: HOP-62 NSCLC
EKVX NSCLC = test system: EKVX NSCLC
OVCAR-5 ovarian = test system: OVCAR-5 ovarian
RPMI-8226 leukemia = test system: RPMI-8226 leukemia
SF-539 CNS = test system: SF-539 CNS

Compound `CCOP(=O)(OCC)O[C@H]1CC[C@]2(C)[C@H]3CC[C@@H]4[C@@H]([C@](C)(O)CCC=C(C)C)CC[C@@]4(C)[C@]3(C)CC[C@H]2C1(C)C` has a TGI (NCI-H226 lung) of 25.3 µM, a GI50 (DU-145 prostate) of 14.8 µM and a TGI (DU-145 prostate) of 30.4 µM. For the same compound, the GI50 (MALME-3M melanoma) was 11.7 µM, the TGI (MALME-3M melanoma) was 24 µM and the GI50 (KM12 colon) was 15.4 µM. The TGI (KM12 colon) was 33.2 µM, the GI50 (CCRF-CEM leukemia) was 11.5 µM and the TGI (CCRF-CEM leukemia) was 29.3 µM. It also gave a GI50 (TK-10 renal) of 13.5 µM, a TGI (TK-10 renal) of 27.7 µM and a GI50 (K-562 leukemia) of 6.99 µM. For the same compound, the TGI (K-562 leukemia) was 98.8 µM, the GI50 (LOX IMVI melanoma) was 12.7 µM and the TGI (LOX IMVI melanoma) was 25.2 µM. The GI50 (HCC-2998 colon) was 13.4 µM, the TGI (HCC-2998 colon) was 26 µM and the GI50 (PC-3 prostate) was 3.45 µM. It also gave a TGI (PC-3 prostate) of 17 µM, a GI50 (MOLT-4 leukemia) of 8.07 µM and a TGI (MOLT-4 leukemia) of 29.1 µM. For the same compound, the GI50 (SR leukemia) was 3.12 µM, the TGI (SR leukemia) was 98.8 µM and the GI50 (SNB-75 CNS) was 7.02 µM. For the same compound, the TGI (SNB-75 CNS) was 22.4 µM, the GI50 (IGROV1 ovarian) was 13.8 µM and the TGI (IGROV1 ovarian) was 27.5 µM. It also gave a GI50 (RXF 393 renal) of 6.45 µM, a TGI (RXF 393 renal) of 19.5 µM and a GI50 (OVCAR-4 ovarian) of 13.4 µM. The TGI (OVCAR-4 ovarian) was 32 µM, the GI50 (ACHN renal) was 12.5 µM and the TGI (ACHN renal) was 25 µM. The GI50 (SK-MEL-28 melanoma) was 12.9 µM, the TGI (SK-MEL-28 melanoma) was 25.8 µM and the GI50 (786-0 renal) was 11.9 µM. The TGI (786-0 renal) was 28.3 µM, the GI50 (U251 CNS) was 11.8 µM and the TGI (U251 CNS) was 28.4 µM. It also gave a GI50 (SF-268 CNS) of 12.7 µM, a TGI (SF-268 CNS) of 30.9 µM and a GI50 (SK-MEL-5 melanoma) of 10.4 µM. The TGI (SK-MEL-5 melanoma) was 22.2 µM, the GI50 (T-47D breast) was 7.62 µM and the TGI (T-47D breast) was 25.2 µM. The GI50 (MDA-MB-231 breast) was 11.5 µM, the TGI (MDA-MB-231 breast) was 23.7 µM and the GI50 (SK-MEL-2 melanoma) was 13.2 µM. For the same compound, the TGI (SK-MEL-2 melanoma) was 26.9 µM, the GI50 (HOP-62 NSCLC) was 14.1 µM and the TGI (HOP-62 NSCLC) was 29.5 µM. For the same compound, the GI50 (EKVX NSCLC) was 10.1 µM, the TGI (EKVX NSCLC) was 21.6 µM and the GI50 (OVCAR-5 ovarian) was 12.7 µM. For the same compound, the TGI (OVCAR-5 ovarian) was 25.2 µM, the GI50 (RPMI-8226 leukemia) was 3.02 µM and the TGI (RPMI-8226 leukemia) was 17.5 µM. For the same compound, the GI50 (SF-539 CNS) was 13.2 µM and the TGI (SF-539 CNS) was 25.8 µM.

Source: PubChem BioAssay (NCI)
